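48-hour exposure; five concentrations; linearly interpolated endpoints. TGI: concentration producing complete growth inhibition.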
Experiments:
Test in all cases: NCI-60 cell line screen, 48 h
OVCAR-3 ovarian = system: OVCAR-3 ovarian
LOX IMVI melanoma = system: LOX IMVI melanoma
UACC-62 melanoma = system: UACC-62 melanoma
RPMI-8226 leukemia = system: RPMI-8226 leukemia
HS 578T breast = system: HS 578T breast
MOLT-4 leukemia = system: MOLT-4 leukemia
PC-3 prostate = system: PC-3 prostate
OVCAR-8 ovarian = system: OVCAR-8 ovarian
IGROV1 ovarian = system: IGROV1 ovarian
HOP-92 NSCLC = system: HOP-92 NSCLC
MALME-3M melanoma = system: MALME-3M melanoma
MDA-MB-231 breast = system: MDA-MB-231 breast
BT-549 breast = system: BT-549 breast
NCI-H226 lung = system: NCI-H226 lung
NCI/ADR-RES ovarian = system: NCI/ADR-RES ovarian
EKVX NSCLC = system: EKVX NSCLC
SW-620 colon = system: SW-620 colon
OVCAR-5 ovarian = system: OVCAR-5 ovarian
NCI-H23 lung = system: NCI-H23 lung
SK-MEL-28 melanoma = system: SK-MEL-28 melanoma
NCI-H522 lung = system: NCI-H522 lung
HCC-2998 colon = system: HCC-2998 colon
ACHN renal = system: ACHN renal
SNB-75 CNS = system: SNB-75 CNS
SK-OV-3 ovarian = system: SK-OV-3 ovarian
HCT-116 colon = system: HCT-116 colon
SK-MEL-5 melanoma = system: SK-MEL-5 melanoma
M14 melanoma = system: M14 melanoma
SF-539 CNS = system: SF-539 CNS
SNB-19 CNS = system: SNB-19 CNS
KM12 colon = system: KM12 colon
HCT-15 colon = system: HCT-15 colon
CAKI-1 renal = system: CAKI-1 renal
MDA-MB-435 = system: MDA-MB-435
SF-295 CNS = system: SF-295 CNS
K-562 leukemia = system: K-562 leukemia
UO-31 renal = system: UO-31 renal
A498 renal = system: A498 renal
CCRF-CEM leukemia = system: CCRF-CEM leukemia
786-0 renal = system: 786-0 renal
HT29 colon = system: HT29 colon
SK-MEL-2 melanoma = system: SK-MEL-2 melanoma
HL-60(TB) leukemia = system: HL-60(TB) leukemia
A549 NSCLC = system: A549 NSCLC
TK-10 renal = system: TK-10 renal
COLO 205 colon = system: COLO 205 colon
SF-268 CNS = system: SF-268 CNS
MCF7 breast = system: MCF7 breast
OVCAR-4 ovarian = system: OVCAR-4 ovarian
UACC-257 melanoma = system: UACC-257 melanoma
NCI-H460 lung = system: NCI-H460 lung
U251 CNS = system: U251 CNS

Measured: TGI

CCCC[C@@H]1CCN2C[C@@H](O)[C@@H](O)[C@H]2[C@@H]1O
> 100 µM: all assays above

Source: PubChem BioAssay (NCI)
